The numbers were not newly measured in US20080063668A1, “Nitroimidazole and terconazole composition and method” (priority 2006, published 2008), which cites them from elsewhere.

SMILES strings stand for the structures. Counter-ions that a name gives are not always drawn.

For this data set the following is noted: neutral pH; cited from earlier work.

Take `CC(C)N1CCN(c2ccc(OCC3COC(Cn4cncn4)(c4ccc(Cl)cc4Cl)O3)cc2)CC1` (stereo not shown) [Terconazole hydrochloride]: the solubility in water result is “about 0.007 percent by weight”.
